Results: patent US4973578A, “Synthetic peptides derived from the alpha-subunit of human lycoprotein hormones” (Mayo Foundation for Medical Education and Research, priority 1988, dated 1990)
Several values for one entry are separate records, joined by “and”; a condition that tells them apart may be missing. Equal entries are not always repeated. Entries after “also recorded” stand apart in the source; their conditions may differ. Residues, ends and D or L forms follow the SMILES beside them.

Legend:
[1] = biological target: T1, TSH receptor on human thyroid membranes (Homo sapiens, UniProt P16473); experiment: TSH radioreceptor assay: inhibition of 125I-bTSH binding to human thyroid membrane preparations; conditions: for IC50: human thyroid membrane homogenates, ± S.E., read-out: bTSH ED50 (effective dose necessary to inhibit binding of 125I-bTSH by 50%); for inhibition of 125I-bTSH binding, result in words: human thyroid membranes
T1 construct: Thyroid tissue obtained at surgery from patients with Graves' disease was prepared as described by Takahashi et al; from tissue; host or cells: human thyroid tissue from Graves' disease patients, 2000xg membrane fraction
T1 sequence (P16473 21-764): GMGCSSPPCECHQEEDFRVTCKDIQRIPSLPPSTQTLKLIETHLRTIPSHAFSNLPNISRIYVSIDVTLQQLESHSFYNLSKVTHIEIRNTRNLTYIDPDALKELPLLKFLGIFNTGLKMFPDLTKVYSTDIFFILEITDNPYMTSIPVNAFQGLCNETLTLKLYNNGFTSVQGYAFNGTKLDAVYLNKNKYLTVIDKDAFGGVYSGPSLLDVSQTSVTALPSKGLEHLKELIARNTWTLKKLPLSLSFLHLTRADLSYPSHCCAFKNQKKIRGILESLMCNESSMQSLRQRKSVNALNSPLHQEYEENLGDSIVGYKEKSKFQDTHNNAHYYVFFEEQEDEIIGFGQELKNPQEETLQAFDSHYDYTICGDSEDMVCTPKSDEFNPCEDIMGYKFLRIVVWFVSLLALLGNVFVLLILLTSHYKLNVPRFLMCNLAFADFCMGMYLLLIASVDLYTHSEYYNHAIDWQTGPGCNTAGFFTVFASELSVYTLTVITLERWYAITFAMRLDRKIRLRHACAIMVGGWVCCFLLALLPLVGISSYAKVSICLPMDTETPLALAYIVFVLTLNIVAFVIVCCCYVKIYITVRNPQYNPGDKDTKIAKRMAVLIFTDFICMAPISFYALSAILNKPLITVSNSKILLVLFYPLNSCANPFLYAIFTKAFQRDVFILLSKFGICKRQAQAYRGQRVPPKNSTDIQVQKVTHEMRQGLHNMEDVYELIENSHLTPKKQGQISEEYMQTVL
Procedure: Thyroid tissue obtained at surgery from patients with Graves' disease was prepared as described by Takahashi et al., J. Clin. Endocrinol. Metab. 47:870 (1978), the disclosure of which is incorporated herein. Briefly, the tissue was dissected free of fibrous material, minced with scissors, and homogenized with Polytron homogenizer. The 2000×g fraction was collected by centrifugation, washed and resuspended in 40 mM Tris, 0.1% Bovine Serum Albumin (BSA) pH 7.4 at a concentration of 100 mg equivalents of wet tissue per milliliter. The preparation was stored at -70° C. until used for assay.
Highly purified bovine TSH (30 IU/mg, supplied by Dr. J. G. Pierce, UCLA) was radio-iodinated (Na^125 I, Amersham, Chicago) by a gentle lactoperoxidase procedure described by Takahashi et al., supra, then purified by Sephadex G-100 chromatography.
The membrane assay incubation mixture consisted of […] of the 2000×g membrane fraction, 0.125 ng ^125 I bTSH (approximately 20,000 cpm, 5×10^-12 M), 100 ul of 1% Triton X-100 and noted amounts of test materials in a final volume of 0.5 ml of 40 mM Tris-HCl pH 7.4 plus 0.1% BSA. Nonspecific binding was determined by addition of excess unlabeled bTSH (200 mU/ml, Sigma, St. Louis). After 2 hrs incubation at 25° C., 200 ul of 5 mg/ml bovine gamma globulin and 1 ml 30% polyethylene glycol 6000 (Baker, Phillipsburg, N.J.) in 1M NaCl was added to each tube and the tubes centrifuged at 4000 rpm for 25 minutes. The supernatants were aspirated and pellets counted in a gamma counter. Specific binding averaged 25% of total counts.
FIG. 1 reports 5×10^-12 M labeled bTSH incubated with 10 mg equivalents (wet weight) of 2000×g fraction of thyroid membranes with varying concentrations of unlabeled TSH or synthetic α-subunit peptides. Nonspecific binding was determined in the presence of excess unlabeled TSH.

[2] = Solubility of peptide in assay buffers; format: physicochemical
[3] = system: TSH mediated cAMP generation in FRTL-5 cells; experiment: Inhibition of TSH mediated cAMP generation in FRTL-5 cells; format: cell-based, rat; conditions: for percent inhibition of TSH mediated cAMP generation: 200 mU/L bTSH, 2 hrs 37° C.
Procedure: FRTL-5 cells were maintained in Ham's F-12 medium supplemented with 5% calf serum and a 6 hormone preparation including 10 mU/ml bTSH as described by Ambesi-Impiombato et al., Proc. Natl. Acad. Sci. U.S.A., 77:3455 (1980), the disclosure of which is incorporated herein. For all assays herein described, the cells were plated in 24 well plates and grown for 3 days at 37° C. then maintained for 5-7 days in medium supplemented with 10 ug insulin alone prior to assay.
The bioassay was a modification of those previously described by Bidey et al, J. Endocrinol., 101:269 (1984); and Kasagi et al., ACTA Endocrinol., 115:30 (1987). To duplicate culture wells were added varying concentrations of test materials (see below) in a final volume of 300 ul of NaCl free HBSS with 0.5 mM iso-butyl-methyl-xanthine (IBMX, Sigma, St. Louis). In stimulation assays, only synthetic α-subunit peptides were added to the incubation medium. For inhibition assays, the noted concentrations of synthetic α-subunit peptides were added immediately prior to the addition of 200 mU/L bTSH. The plates were incubated at 37° C. in 5% CO2 for 2 hrs then 100 ul of incubation medium was removed and diluted in 900 ul of 0.05M sodium acetate pH 6.2 and assayed for cAMP content by RIA in accordance with procedures described by Wray and Glinos, Am. J. Physiol., 234 (Cell Phisol. 3):C131(1978)); and Steiner et al., J. Biol. Chem., 247:1106 (1972). […] Basal cAMP levels were determined in the presence of HBSS and IBMX alone. In inhibition assays percent inhibition was calculated as follows: [formula]
FIG. 4 reports data obtained for TSH deprived FRTL-5 cells incubated with a fixed amount of bTSH (200 mU/l) by itself or with various concentrations of synthetic peptides. cAMP content of medium was measured after 2 hrs. incubation at 37° C. Percent inhibition of cAMP generation was calculated as noted above.

[4] = system: thyroid stimulating immunoglobulin (TSI) stimulated cAMP in FRTL-5 cells; experiment: TSI bioassay: inhibition of thyroid stimulating immunoglobulin activity (PEG-precipitated patient immunoglobulin) in FRTL-5 cells; format: cell-based, rat; conditions: for Percent inhibition of TSI activity, mean: mean of patient samples tested
Source text: Ten patients (8 women and 2 men) with Graves' disease and high levels of TSI were identified after evaluation by FRTL-5 cell bioassay in the clinical chemistry laboratory. (FRTL-5 bioassay described below employing known TSH receptor recognition of various species hormones) Consecutive samples that had indices greater than 15 and sufficient serum remaining for further evaluation were chosen. Seven of the 10 had serum thyroxine values above the normal range and 9 of 10 had TSH levels below the euthyroid range by sensitive immunoradiometric assay [Boots-Celltech Sucrosep, Berkshire, UK, conducted as described in Klee and Hay, J. Clin. Endocrinol. Metab., 64:461 (1987)]. (FIG. 5). For comparison serum from 13 normal subjects was examined for TSI at the same serum dilution as the patient sera. (FIG. 5).
FRTL-5 cells were maintained in Ham's F-12 medium supplemented with 5% calf serum and a 6-hormone preparation (6H) as described by Ambesi-Impiombato, supra. The cells were removed from flasks enzymatically, plated at 150,000 cells per well in 24 well plates, and grown in 6H medium for 4 days. The medium was then replaced with fresh medium supplemented with insulin only (1H) for 7 days prior to assay. The bioassay was a modification of that described by Kasagi et al., supra. Briefly, immunoglobulins were precipitated from 2 ml of serum with 6 ml 20% polyethylene glycol 6000 (Baker, Phillipsburg, N.J.), centrifuged at 2800×g for 20 minutes, and then reconstituted in 2.4 ml buffer (NaCl-free Hanks balanced salt solution, NaCl-free HBSS), containing 1 mM iso-butyl-methyl-xanthine (IBMX, Sigma, St. Louis) and 1.5% BSA. After washing the cells with HBSS, 150 ul of buffer was added to the wells plus varying concentrations of synthetic α-subunit peptides followed immediately by 150 ul of the crude immunoglobulin extract. The plates were incubated for 2 hours at 37° C., 5% CO2 after which 100 ul of medium was removed and diluted in 900 ul 50 mM sodium acetate buffer, pH 6.2. cAMP content was determined by radioimmunoassay using the procedures described in Wray and Glinos, supra and Steiner et al., supra. Basal cAMP levels were determined in the absence of immunoglobulin extract and synthetic peptides for each plate. Basal and maximum levels were determined in quadruplicate; peptide effects were measured in duplicate at each concentration.
Percent increase in cAMP levels over basal was calculated as below: [formula]
Percent inhibition of TSI activity by the synthetic α-subunit peptides was calculated as follows: [formula]
cAMP levels in the presence of synthetic peptides were compared to maximum levels using student's T test for paired samples. Mean percent inhibition between different peptides were compared with student's T test for independent samples. Correlations were determined by Pearson's R.

## CC[C@H](C)[C@H](NC(=O)[C@@H]1CCCN1C(=O)[C@H](C)NC(=O)CNC(=O)[C@@H]1CCCN1)C(=O)N[C@@H](CC(C)C)C(=O)N[C@@H](CCC(N)=O)C(=O)N[C@@H](CS)C(=O)N[C@@H](CCSC)C(=O)NCC(=O)N[C@@H](CS)C(=O)N[C@@H](CS)C(=O)N[C@@H](Cc1ccccc1)C(=O)N[C@@H](CO)C(=O)N[C@@H](CCCNC(=N)N)C(N)=O [α21-35, Pro--Gly--Ala--Pro--Ile--Leu--Gln--Cys--Met--Gly--Cys--Cys--Phe--Ser--Arg] (H-PGAPILQCMGCCFSR-NH2)
[1]; at concentrations greater than 1×10^-5 m, FIG. 1
  displacement of 125I-bTSH label: more than 80%
[1]
  IC50: 39.9 ± 0.4 µM
[1]; FIG. 1
  inhibition of 125I-bTSH binding, result in words: dose dependent inhibition
[2]; FRTL-5 cell binding assay buffer
  behaviour in cell binding assay buffer: precipitated in the assay buffer
[2]; soluble membrane assay (FIG. 1)
  behaviour in soluble membrane assay: remained in solution
[3]; peptide 66.7 ug/ml
  percent inhibition of TSH mediated cAMP generation: 33.88%
[3]; peptide 133.3 ug/ml
  percent inhibition of TSH mediated cAMP generation: 52.50%

## C[C@H](N)C(=O)N[C@@H](CS)C(=O)N[C@@H](Cc1c[nH]cn1)C(=O)N[C@@H](CS)C(=O)N[C@@H](CO)C(=O)N[C@H](C(=O)N[C@@H](CS)C(=O)N[C@@H](Cc1ccc(O)cc1)C(=O)N[C@@H](Cc1ccc(O)cc1)C(=O)N[C@@H](Cc1c[nH]cn1)C(=O)N[C@@H](CCCCN)C(=O)N[C@@H](CO)C(=O)O)[C@@H](C)O [α81-92, Ala--Cys--His--Cys--Ser--Thr--Cys--Tyr--Tyr--His--Lys--Ser(OH)] (H-ACHCSTCYYHKS-OH)
[4]; FIG. 7 and Table 6
  inhibition of cAMP generated by patient immunoglobulin, in words: did not significantly inhibit
[4]; Pt. sample D, peptide 66.7 ug/ml
  Percent inhibition of TSI activity: -18.5%
[4]; Pt. sample D, peptide 133 ug/ml
  Percent inhibition of TSI activity: -7.8%
[4]; Pt. sample E, peptide 66.7 ug/ml
  Percent inhibition of TSI activity: 29.7%
[4]; Pt. sample E, peptide 133 ug/ml
  Percent inhibition of TSI activity: 33.6%
[4]; Pt. sample F, peptide 66.7 ug/ml
  Percent inhibition of TSI activity: 9.6%
[4]; Pt. sample F, peptide 133 ug/ml
  Percent inhibition of TSI activity: -5.1%
[4]; Pt. sample G, peptide 66.7 ug/ml
  Percent inhibition of TSI activity: 19.0%
[4]; Pt. sample G, peptide 133 ug/ml
  Percent inhibition of TSI activity: 14.5%
[4]; Pt. sample H, peptide 66.7 ug/ml
  Percent inhibition of TSI activity: 0.6%
[4]; Pt. sample H, peptide 133 ug/ml
  Percent inhibition of TSI activity: -11.4%
[4]; Pt. sample I, peptide 66.7 ug/ml
  Percent inhibition of TSI activity: -13.3%
[4]; Pt. sample I, peptide 133 ug/ml
  Percent inhibition of TSI activity: -17.0%
[4]; Pt. sample J, peptide 66.7 ug/ml
  Percent inhibition of TSI activity: -2.0%
[4]; Pt. sample J, peptide 133 ug/ml
  Percent inhibition of TSI activity: -7.7%
[4]; peptide 66.7 ug/ml
  Percent inhibition of TSI activity, mean: 3.6%
[4]; peptide 133 ug/ml
  Percent inhibition of TSI activity, mean: -0.1±6.2% and -0.1%
  patient Ig samples with statistically significant inhibition of cAMP: none of the 7
[1]
  IC50: 175 ± 3.8 µM
[1]; FIG. 1
  inhibition of 125I-bTSH binding, result in words: dose dependent inhibition; also recorded: considerably less potent
[3]; peptide 66.7 ug/ml
  percent inhibition of TSH mediated cAMP generation: 18.03%
[3]; peptide 133.3 ug/ml
  percent inhibition of TSH mediated cAMP generation: 20.83%
[3]; same concentrations as the active peptides
  inhibition of TSH mediated cAMP generation, in words: did not significantly inhibit TSH stimulation of cAMP production; also recorded: little or no ability to inhibit TSH mediated cAMP generation
